According to patent publication US9616037B2, “Aryl-phenyl-sulfonamido-cycloalkyl compounds and their use” (PIMCO 2664 Limited, priority 2008, dated 2017):
In brackets after ≈: the same amount, converted by molar mass.

Test system: J774 macrophages
Assay: Alamar Blue macrophage J774 viability assay
Type: cell-based
Conditions: J774 cells, 72 hours with compound, Alamar Blue readout
Procedure: (§1) Initial screening of candidate compounds was performed using in vitro assays to determine potency, metabolic stability and solubility in biologically relevant fluids. Potency was assessed using a viability assay based on the survival of the J774 macrophage cell line. Macrophages are closely related to osteoclasts and have been used previously as a model system for osteoclast survival (see, e.g., Luckman et al., 1998). Like osteoclasts, J774 macrophages are dependent on continued NFκB activation for survival, thereby providing a valuable screen for compounds with anti-inflammatory activity. Metabolic stability was measured by determining the rate of disappearance of compound in the presence of human liver microsomal preparations, as quantified by LC-MS/MS. Solubility was measured by equilibration of the compound in fasted state simulated intestinal fluid (FaSSIF) and quantified by HPLC.
In vitro potency as anti-inflammatory agents was determined for a number of APSAC compounds by incubation with J774 macrophages and subsequent determination of cell viability.
J774 cells were plated at 10^4 cells per well in 100 μL αMEM (α Modified Eagle Medium) in 96-well plates and grown overnight. The next day, test compounds were added to the cultures, and cultures were continued for another 72 hours. At the end of the culture period, cell survival was determined using an Alamar Blue assay as previously described (see, e.g., Nociari et al., 1998).
Alamar Blue is an oxidation-reduction sensitive indicator. The dye itself is in the oxidised state, which is blue and non-fluorescent. The dye can accept electrons from reducing species, such as NADPH and FADH, to form a reduced dye species, which is red and fluorescent. Thus the transformation from oxidised form to reduced form can be measured by fluorimetric or colourimetric means. For fluorescence measurements, 530-560 nm excitation and 590 nm emission wavelengths are typically used. For colourimetric measurements, absorbance at 570 nm (reduced form) and 600 nm (oxidised form) is typically measured. A simple calculation is performed to determine the relative quantities of the two species.
A high ratio of the reducing species, NADPH and FADH, to the corresponding oxidised species, NADP and FAD, is an indicator that cells are proliferating and viable. A low ratio indicates cells that are quiescent or non-viable.
Briefly, Alamar Blue (Biosource International) was added undiluted to the each well (1:10 v/v, 10 μL). The plate was incubated at 37° C. for 3-4 hours and the fluorescence was measured at 590 nm, with a 25 nm bandwidth. A high reading indicated cells with normal viability, and a low reading indicated cells that have been damaged and are no longer proliferating normally. The controls gave a high fluorescence reading, indicating a high number of live, healthy cells. A potent test compound gave a low fluorescence reading. The average results for each test compound (n=5) were expressed as a percent (%) of the average control value.
Addition of Compounds. All of the compounds studied were made up as 100 mM solutions in DMSO. These stock solutions were then diluted 1000-10000× in culture medium (αMEM). From these 100 μM or 10 μM solutions, convenient quantities (3-33 μL) were added directly to the wells so as to give the desired final compound concentration.
With `O=S(=O)(N[C@H]1CC[C@H](O)CC1)c1ccc(-c2cncnc2)cc1` [ABD861, N-(trans-4-Hydroxycyclohexyl)-4-(pyrimidin-5-yl)benzenesulfonamide] the IC50 was “Inactive”.

Same assay, conditions: J774 cells, 72 hours with compound, Alamar Blue readout; read-out: IC50
Compound `O=S(=O)(Nc1cccc(CO)c1)c1ccc(-c2ccc(Cl)cc2F)cc1` [ABD575, reference compound] has an IC50 of 400 nM.

Same assay, conditions: Mus musculus; J774 cells, 72 hours with compound, Alamar Blue readout; read-out: IC50
`Cc1cc(S(=O)(=O)N[C@H]2CC[C@H](O)CC2)ccc1-c1ccc(OC(F)(F)F)cc1` [ABD742, N-(trans-4-Hydroxycyclohexyl)-2-methyl-4′-(trifluoromethoxy)biphenyl-4-sulfonamide] showed an IC50 of 770 nM.
With `CCN(CC)C1CCC(NS(=O)(=O)c2ccc(-c3ccc(F)cc3F)cc2)CC1` (centres unmarked) [ABD819, N-(4-(Diethylamino)cyclohexyl)-2′,4′-difluorobiphenyl-4-sulfonamide] the IC50 was 2400 nM.
In the case of `O=S(=O)(N[C@H]1CC[C@H](O)CC1)c1ccc(-c2ccc(F)cc2F)cc1Cl` [ABD705, 3-Chloro-2′,4′-difluoro-N-(trans-4-hydroxycyclohexyl)biphenyl-4-sulfonamide], the IC50 is reported as 830 nM.
`O=S(=O)(N[C@H]1CC[C@H](O)CC1)c1ccc(-c2ncc(Cl)cn2)cc1` [ABD837, 4-(5-Chloropyrimidin-2-yl)-N-(trans-4-hydroxycyclohexyl)benzenesulfonamide] gave an IC50 of 8880 nM.
`CNC[C@H]1CC[C@@H](NS(=O)(=O)c2ccc(-c3ccc(F)cc3F)cc2)CC1` [ABD824, 2′,4′-Difluoro-N-(cis-4-((methylamino)methyl)cyclohexyl)biphenyl-4-sulfonamide] gave an IC50 of 7200 nM.
With `O=S(=O)(Nc1ccc(CO)cc1)c1ccc(-c2ccc(F)cc2F)cc1` [ABD466, 2′,4′-difluoro-biphenyl-4-sulfonic acid (4-hydroxymethyl-phenyl)-amide, reference compound] the IC50 was 3000 nM.
In the case of `CCNC1CCC(NS(=O)(=O)c2ccc(-c3ccc(F)cc3F)cc2)CC1` (centres unmarked) [ABD817, N-(4-(Ethylamino)cyclohexyl)-2′,4′-difluorobiphenyl-4-sulfonamide], the IC50 is reported as under 1000 nM.
In the case of `CN(C)C[C@H]1CC[C@@H](NS(=O)(=O)c2ccc(-c3ccc(F)cc3F)cc2)CC1` [ABD826, N-(cis-4-((Dimethylamino)methyl)cyclohexyl)-2′,4′-difluorobiphenyl-4-sulfonamide], the IC50 is reported as 1000 nM.
Work on `O=S(=O)(N[C@H]1CC[C@H](O)CC1)c1ccc(-c2ccc(Cl)c(C(F)(F)F)c2)cc1` [ABD712, 4′-Chloro-N-(trans-4-hydroxycyclohexyl)-3′-(trifluoromethyl)biphenyl-4-sulfonamide] yielded an IC50 of 5460 nM.
In the case of `O=S(=O)(N[C@H]1CC[C@H](NCC(F)(F)F)CC1)c1ccc(-c2ccc(F)cc2F)cc1` [ABD865, 2′,4′-Difluoro-N-(trans-4-(2,2,2-trifluoroethylamino)cyclohexyl)biphenyl-4-sulfonamide], the IC50 is reported as 5900 nM.
Work on `Cc1cc(S(=O)(=O)N[C@H]2CC[C@H](O)CC2)ccc1-c1ccc(F)cc1F` [ABD735, 2′,4′-Difluoro-N-(trans-4-hydroxycyclohexyl)-2-methylbiphenyl-4-sulfonamide] yielded an IC50 of 90 nM.
With `CCN(C)C1CCC(NS(=O)(=O)c2ccc(-c3ccc(F)cc3F)cc2)CC1` (centres unmarked) [ABD822, N-(4-(Ethyl(methyl)amino)cyclohexyl)-2′,4′-difluorobiphenyl-4-sulfonamide] the IC50 was 6980 nM.
For `O=S(=O)(NC1CCC(N2CCOCC2)CC1)c1ccc(-c2ccc(F)cc2F)cc1` (centres unmarked) [ABD821, 2′,4′-Difluoro-N-(4-morpholinocyclohexyl)biphenyl-4-sulfonamide], the IC50 was over 10000 nM.
`O=S(=O)(Nc1cccc(CO)c1)c1ccc(-c2ccc(F)cc2F)cc1` [ABD456, 2′,4′-difluoro-biphenyl-4-sulfonic acid (3-hydroxymethyl-phenyl)-amide, reference compound] gave an IC50 of 250 nM.
`N#Cc1ccc(-c2ccc(S(=O)(=O)N[C@H]3CC[C@H](O)CC3)c(Cl)c2)cc1` [ABD732, 3-Chloro-4′-cyano-N-(trans-4-hydroxycyclohexyl)biphenyl-4-sulfonamide] showed an IC50 of 4320 nM.
`COc1ccc(-c2ccc(S(=O)(=O)N[C@H]3CC[C@H](O)CC3)cc2F)cc1` [ABD710, 2-Fluoro-N-(trans-4-hydroxycyclohexyl)-4′-methoxybiphenyl-4-sulfonamide] showed an IC50 of 1980 nM.
Work on `CNC1CCC(NS(=O)(=O)c2ccc(-c3ccc(F)cc3F)cc2)CC1` (centres unmarked) [ABD816, 2′,4′-Difluoro-N-(4-(methylamino)cyclohexyl)biphenyl-4-sulfonamide] yielded an IC50 of 800 nM.
Compound `O=S(=O)(N[C@H]1CC[C@H](O)CC1)c1ccc(-c2ccc(Cl)cc2Cl)cc1OC(F)(F)F` [ABD756, 2′,4′-Dichloro-N-(trans-4-hydroxycyclohexyl)-3-(trifluoromethoxy)biphenyl-4-sulfonamide] has an IC50 of 2180 nM.
Work on `O=S(=O)(N[C@H]1CC[C@H](O)CC1)c1ccc(-c2ccc(OC(F)(F)F)cc2)c(F)c1` [ABD665, 2-Fluoro-N-(trans-4-hydroxycyclohexyl)-4′-(trifluoromethoxy)biphenyl-4-sulfonamide] yielded an IC50 of 4900 nM.
`O=S(=O)(NC1CCC(N2CCCC2)CC1)c1ccc(-c2ccc(F)cc2F)cc1` (centres unmarked) [ABD820, 2′,4′-Difluoro-N-(4-(pyrrolidin-1-yl)cyclohexyl)biphenyl-4-sulfonamide] showed an IC50 of 2500 nM.
For `O=S(=O)(N[C@H]1CC[C@@H](NCC(F)(F)F)CC1)c1ccc(-c2ccc(F)cc2F)cc1` [ABD864, 2′,4′-Difluoro-N-(cis-4-(2,2,2-trifluoroethylamino)cyclohexyl)biphenyl-4-sulfonamide], the IC50 was over 10000 nM.
With `O=S(=O)(N[C@H]1CC[C@H](O)CC1)c1ccc(-c2ncc(Cl)cc2Cl)cc1` [ABD836, 4-(3,5-Dichloropyridin-2-yl)-N-(trans-4-hydroxycyclohexyl) benzene sulfonamide] the IC50 was 280 nM.

Test system: not listed separately
Assay: Thermodynamic aqueous solubility in fasted state simulated intestinal fluid (FaSSIF)
Type: physicochemical
Conditions: equilibrated at 25° C. for 24 hours, HPLC
Procedure: as §1, with “Macrophages are closely related to osteoclasts and have been used previously as a model system for osteoclast survival (see, e.g., Luckman et al., 1998).” left out
Thermodynamic aqueous solubility was measured by equilibration of a number of APSAC compounds, in the solid state, with fasted state simulated intestinal fluid (FaSSIF) and quantified by HPLC. Measurement of solubility in FaSSIF provides a valuable model for the prediction of drug dissolution following oral administration.
The pH was adjusted to 6.5 using 1 M NaOH solution.
0.6 mL of a solution containing 100 mg/mL lecithin in methylene chloride was added. The methylene chloride was eliminated under vacuum at about 40° C. The vacuum was drawn for 15 minutes at 250 mbar, followed by 15 minutes at 100 mbar. […] After cooling to room temperature, the solution was then adjusted to 100 mL with blank FaSSIF.
The suspension was equilibrated at 25° C. for 24 hours, and then the pH was measured. The suspension was then filtered through a glass fibre C filter into a 96-well plate. The filtrate was then diluted by a factor of 100. Quantification was made by HPLC with reference to a standard solution of compound at approximately 0.1 mg/mL in DMSO. Different volumes of the standard, diluted and undiluted sample solutions were injected. […] Analysis was performed on an Agilent HP1100 series system equipped with a diode array detector and using ChemStation software vB.02.01-SR1.
Compound `O=S(=O)(Nc1cccc(CO)c1)c1ccc(-c2ccc(Cl)cc2F)cc1` [ABD575, reference compound] has a Solubility of 70 µg/mL (≈ 179 µM).
Compound `O=S(=O)(Nc1cccc(CO)c1)c1ccc(-c2ccc(F)cc2F)cc1` [ABD456, 2′,4′-difluoro-biphenyl-4-sulfonic acid (3-hydroxymethyl-phenyl)-amide, reference compound] has a Solubility of 40 µg/mL (≈ 107 µM).
